Results on 1 compound are retold here after US20210186020A1, “AGRICULTURAL COMPOSITIONS AND METHODS OF USE THEREOF” (Valent U.S.A. LLC, priority 2019, published 2021).

In experiment [1] the test system is volunteer corn. Nature of the experiment: Spray-chamber efficacy of S-3100 with or without fertilizer on potted volunteer corn. The format is in vivo, Zea mays. The conditions noted are these: volunteer corn 15 inches, S-3100 20 grams/ha, Fertilizer 14 liters/ha, 1% v/v Agridex (combination also 1% v/v Intact). The protocol:
4 trials were conducted on the efficacy of ethyl [3-[2-chloro-4-fluoro-5-(1-methyl-6-trifluoromethyl-2,4-dioxo-1,2,3,4-tetrahydropyrimidin-3-yl)phenoxy]-2-pyridyloxy]acetate (“S-3100”) with or without a mannitol and/or sorbitol comprising fertilizer. Specifically, 4 pots of volunteer corn were grown to 15 inches in height. These pots were placed in a spray chamber for treatment. All compositions contained 1% v/v of Agridex®. The composition containing S-3100 and fertilizer contained 1% v/v of Intact™. Treatments and results can be found in Table 4, below.

The subject of experiment [2] is broadleaf grass. Nature of the experiment: Spray-chamber efficacy of S-3100 with or without fertilizer on potted broadleaf grass. The format is in vivo. The conditions noted are these: broadleaf grass 10 inches, S-3100 20 grams/ha, Fertilizer 14 liters/ha, 1% v/v Agridex (combination also 1% v/v Intact). As for the experimental part: 4 trials were conducted on the efficacy of ethyl [3-[2-chloro-4-fluoro-5-(1-methyl-6-trifluoromethyl-2,4-dioxo-1,2,3,4-tetrahydropyrimidin-3-yl)phenoxy]-2-pyridyloxy]acetate (“S-3100”) with or without a mannitol and/or sorbitol comprising fertilizer. Specifically, 4 pots of broadleaf grass were grown to 10 inches in height. These pots were placed in a spray chamber for treatment. All compositions contained 1% v/v of Agridex®. The composition containing S-3100 and fertilizer contained 1% v/v of Intact™. Treatments and results can be found in Table 2, below.

For experiment [3], the system named is barnyard grass. The experiment in a line: Spray-chamber efficacy of S-3100 with or without fertilizer on potted barnyard grass. The format is in vivo, Echinochloa crus-galli. The conditions noted are these: barnyard grass 10 inches, S-3100 20 grams/ha, Fertilizer 14 liters/ha, 1% v/v Agridex (combination also 1% v/v Intact). The protocol: 4 trials were conducted on the efficacy of ethyl [3-[2-chloro-4-fluoro-5-(1-methyl-6-trifluoromethyl-2,4-dioxo-1,2,3,4-tetrahydropyrimidin-3-yl)phenoxy]-2-pyridyloxy]acetate (“S-3100”) with or without a mannitol and/or sorbitol comprising fertilizer. Specifically, 4 pots of barnyard grass were grown to 10 inches in height. These pots were placed in a spray chamber for treatment. All compositions contained 1% v/v of Agridex®. The composition containing S-3100 and fertilizer contained 1% v/v of Intact™. Treatments and results can be found in Table 1, below.

Experiment [4] concerns giant foxtail. The experiment in a line: Spray-chamber efficacy of S-3100 with or without fertilizer on potted giant foxtail. The format is in vivo, Setaria faberi. As to conditions: giant foxtail 10 inches, S-3100 20 grams/ha, Fertilizer 14 liters/ha, 1% v/v Agridex (combination also 1% v/v Intact). The protocol: 4 trials were conducted on the efficacy of ethyl [3-[2-chloro-4-fluoro-5-(1-methyl-6-trifluoromethyl-2,4-dioxo-1,2,3,4-tetrahydropyrimidin-3-yl)phenoxy]-2-pyridyloxy]acetate (“S-3100”) with or without a mannitol and/or sorbitol comprising fertilizer. Specifically, 4 pots of giant foxtail were grown to 10 inches in height. These pots were placed in a spray chamber for treatment. All compositions contained 1% v/v of Agridex®. The composition containing S-3100 and fertilizer contained 1% v/v of Intact™. Treatments and results can be found in Table 3, below.

For `CCOC(=O)COc1ncccc1Oc1cc(-n2c(=O)cc(C(F)(F)F)n(C)c2=O)c(F)cc1Cl` [S-3100, ethyl [3-[2-chloro-4-fluoro-5-(1-methyl-6-trifluoromethyl-2,4-dioxo-1,2,3,4-tetrahydropyrimidin-3-yl)phenoxy]-2-pyridyloxy]acetate], the “% control, 3 Days After Treatment” value in experiment [1] (3 DAT) worked out at 65.0%; in experiment [2] (3 DAT) it was 75.0%; in experiment [3] (3 DAT), 73.3%; in experiment [4] (3 DAT) it was 76.7%. In addition, the “% control, 7 Days After Treatment” value in experiment [1] (7 DAT) is on record as 59.2%; in experiment [2] (7 DAT), 93.0%; in experiment [3] (7 DAT), 85.2%; in experiment [4] (7 DAT) it was 95.5%. For the same compound, the “% control, 14 Days After Treatment” value in experiment [1] (14 DAT) worked out at 56.7%; in experiment [2] (14 DAT), 84.2%; in experiment [4] (14 DAT) it was 96.1%. For the same compound, the “% control, 13 Days After Treatment” value in experiment [3] (13 DAT) stood at 84.7%.
